Target: T1, IGF-1R (Homo sapiens, UniProt P08069)
T1 construct: expressed in transfected cells
Experiment: Example B-1: IGF-1R Assay (PC3 cells stimulated with IGF1, AlphaLISA on cell lysates)
Type: cell-based
Settings: compound two hours, IGF1 200 ng/mL for 30 min, read-out: IC50, Biological Activity against IGF-1R (Table B1)
How it was run: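 IC50 from AlphaLISA read-out of lysed PC3 cells, percent inhibition normalized between vehicle and EC80 controls. Before lysis, cells had 2 h serum-free starvation, 2 h exposure to compound in 3× dilution series, and 30 min IGF1 stimulation at final 200 ng/mL.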

T1 sequence (P08069 31-1367): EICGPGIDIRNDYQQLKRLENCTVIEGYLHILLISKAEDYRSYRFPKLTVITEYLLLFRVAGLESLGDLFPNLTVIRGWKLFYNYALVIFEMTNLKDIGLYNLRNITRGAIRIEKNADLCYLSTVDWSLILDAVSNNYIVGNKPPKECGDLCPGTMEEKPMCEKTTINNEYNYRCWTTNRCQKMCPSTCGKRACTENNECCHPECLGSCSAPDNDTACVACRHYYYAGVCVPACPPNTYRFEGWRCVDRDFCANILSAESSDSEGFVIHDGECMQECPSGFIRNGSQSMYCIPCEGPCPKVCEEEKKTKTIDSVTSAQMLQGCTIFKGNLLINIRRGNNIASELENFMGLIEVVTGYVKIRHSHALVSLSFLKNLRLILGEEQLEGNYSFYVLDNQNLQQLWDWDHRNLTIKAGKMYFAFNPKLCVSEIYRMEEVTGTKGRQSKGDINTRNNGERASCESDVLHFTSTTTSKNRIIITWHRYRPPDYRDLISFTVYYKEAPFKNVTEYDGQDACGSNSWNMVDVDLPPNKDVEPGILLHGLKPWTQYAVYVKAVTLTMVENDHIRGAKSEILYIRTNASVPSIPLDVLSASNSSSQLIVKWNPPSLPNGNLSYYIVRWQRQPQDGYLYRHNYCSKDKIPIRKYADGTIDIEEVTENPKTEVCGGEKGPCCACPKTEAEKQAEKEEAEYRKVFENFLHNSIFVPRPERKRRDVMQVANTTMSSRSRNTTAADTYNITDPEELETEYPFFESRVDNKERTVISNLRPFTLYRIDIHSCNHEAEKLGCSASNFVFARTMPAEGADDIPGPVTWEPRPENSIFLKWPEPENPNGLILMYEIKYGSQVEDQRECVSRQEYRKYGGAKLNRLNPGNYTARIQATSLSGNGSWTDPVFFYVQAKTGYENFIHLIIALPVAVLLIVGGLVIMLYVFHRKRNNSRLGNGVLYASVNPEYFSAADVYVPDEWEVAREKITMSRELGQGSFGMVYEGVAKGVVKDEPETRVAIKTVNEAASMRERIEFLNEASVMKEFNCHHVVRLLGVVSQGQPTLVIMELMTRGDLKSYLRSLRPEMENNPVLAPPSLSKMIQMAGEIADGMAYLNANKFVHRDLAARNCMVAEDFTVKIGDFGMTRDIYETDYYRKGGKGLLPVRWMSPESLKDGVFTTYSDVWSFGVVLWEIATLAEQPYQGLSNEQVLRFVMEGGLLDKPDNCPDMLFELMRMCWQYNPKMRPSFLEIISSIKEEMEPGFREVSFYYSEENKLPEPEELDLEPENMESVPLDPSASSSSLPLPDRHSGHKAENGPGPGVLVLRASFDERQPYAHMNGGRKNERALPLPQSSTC

Row | SMILES | IC50 [nM]
1 | CC(C)Nc1cc(CN2C(=O)N(c3ccc(C4CC4(C)C)cc3)C(=O)C2(C)C)ccn1 (centres unmarked) [Compound 108, 3-(4-(2,2-dimethylcyclopropyl)phenyl)-1-((2-(isopropylamino)pyridin-4-yl)methyl)-5,5-dimethylimidazolidine-2,4-dione] | ≤ 500
2 | CC(C)Nc1cc(CN2C(=O)N(c3ccc(C45CC(C)(C4)C5)cc3)C(=O)C2(C)C)ccn1 [Compound 112, 1-((2-(isopropylamino)pyridin-4-yl)methyl)-5,5-dimethyl-3-(4-(3-methylbicyclo[1.1.1]pentan-1-yl)phenyl)imidazolidine-2,4-dione] | 2000 to 10000
3 | CC1(C)CC(Nc2cc(CN3C(=O)N(c4ccc(C5(C(F)(F)F)CC5)cc4)C(=O)C3(C)C)ccn2)CCO1 (centres unmarked) [Compound 113, 1-((2-((2,2-dimethyltetrahydro-2H-pyran-4-yl)amino)pyridin-4-yl)methyl)-5,5-dimethyl-3-(4-(1-(trifluoromethyl)cyclopropyl)phenyl) imidazolidine-2,4-dione] | ≤ 500
4 | CC(C)Nc1cc(CN2C(=O)N(c3ccc(C4(C(F)(F)F)CCC4)cc3)C(=O)C2(C)C)ccn1 [Compound 115, 1-((2-(isopropylamino)pyridin-4-yl)methyl)-5,5-dimethyl-3-(4-(1-(trifluoromethyl)cyclobutyl)phenyl) imidazolidine-2,4-dione] | ≤ 500
5 | CC(C)Nc1cc(CN2C(=O)N(c3ccc(C4(C)CC(F)(F)C4)cc3)C(=O)C2(C)C)ccn1 [Compound 116, 3-(4-(3,3-difluoro-1-methylcyclobutyl)phenyl)-1-((2-(isopropylamino)pyridin-4-yl)methyl)-5,5-dimethylimidazolidine-2,4-dione] | ≤ 500
6 | CC(C)Nc1cc(CN2C(=O)N(c3ccc(C45CC(C4)C5)cc3)C(=O)C2(C)C)ccn1 [Compound 117, 3-(4-(bicyclo[1.1.1]pentan-1-yl)phenyl)-1-((2-(isopropylamino)pyridin-4-yl)methyl)-5,5-dimethylimidazolidine-2,4-dione] | ≤ 500
7 | CC(C)Nc1cc(CN2C(=O)N(c3ccc(S(F)(F)(F)(F)F)cc3)C(=O)C2(C)C)ccn1 [Compound 178, 1-((2-(isopropylamino)pyridin-4-yl)methyl)-5,5-dimethyl-3-(4-(pentafluoro-16-sulfanyl)phenyl)imidazolidine-2,4-dione] | ≤ 500
8 | CC1(C)C(=O)N(c2ccc(S(F)(F)(F)(F)F)cc2)C(=O)N1Cc1ccnc(N)c1 [Compound 179, 1-((2-aminopyridin-4-yl)methyl)-5,5-dimethyl-3-(4-(pentafluoro-16-sulfanyl)phenyl)imidazolidine-2,4-dione] | ≤ 500
9 | CC1(C)C(=O)N(c2ccc3c(C(F)(F)F)n[nH]c3c2)C(=O)N1Cc1ccnc(N)c1 [Compound 254, 1-((2-aminopyridin-4-yl)methyl)-5,5-dimethyl-3-(3-(trifluoromethyl)-1H-indazol-6-yl)imidazolidine-2,4-dione] | 500 to 2000
10 | CCc1cn(C)c2cc(N3C(=O)N(Cc4ccnc(NC(C)C)c4)C(C)(C)C3=O)ccc12 [Compound 257, 3-(3-ethyl-1-methyl-1H-indol-6-yl)-1-((2-(isopropylamino)pyridin-4-yl)methyl)-5,5-dimethylimidazolidine-2,4-dione] | 500 to 2000
11 | CC(C)Nc1cc(CN2C(=O)N(c3ccc(C(C)(C)C)cc3)C(=O)C2(C)C)ccn1 [Compound 263, 3-(4-(tert-butyl)phenyl)-1-((2-(isopropylamino)pyridin-4-yl)methyl)-5,5-dimethylimidazolidine-2,4-dione] | ≤ 500
12 | COCC(C)Nc1cc(CN2C(=O)N(c3ccc(C(C)(C)C)cc3)C(=O)C2(C)C)ccn1 (centres unmarked) [Compound 265, 3-(4-(tert-butyl)phenyl)-1-((2-((1-methoxypropan-2-yl)amino)pyridin-4-yl)methyl)-5,5-dimethylimidazolidine-2,4-dione] | ≤ 500
13 | CC(C)(C)c1ccc(N2C(=O)N(Cc3ccnc(NC4CCOCC4)c3)C(C)(C)C2=O)cc1 [Compound 266, 3-(4-(tert-butyl)phenyl)-5,5-dimethyl-1-((2-((tetrahydro-2H-pyran-4-yl)amino)pyridin-4-yl)methyl)imidazolidine-2,4-dione] | ≤ 500
14 | COC[C@@H](C)Nc1cc(CN2C(=O)N(c3ccc(C(C)(C)C)cc3)C(=O)C2(C)C)ccn1 [Compound 268, (R)-3-(4-(tert-butyl)phenyl)-1-((2-((1-methoxypropan-2-yl)amino)pyridin-4-yl)methyl)-5,5-dimethylimidazolidine-2,4-dione] | ≤ 500
15 | COC[C@H](C)Nc1cc(CN2C(=O)N(c3ccc(C(C)(C)C)cc3)C(=O)C2(C)C)ccn1 [Compound 269, (S)-3-(4-(tert-butyl)phenyl)-1-((2-((1-methoxypropan-2-yl)amino)pyridin-4-yl)methyl)-5,5-dimethylimidazolidine-2,4-dione] | ≤ 500
16 | CC(C)(C)c1ccc(N2C(=O)N(Cc3ccnc(NC4CC(F)(F)C4)c3)C(C)(C)C2=O)cc1 [Compound 270, 3-(4-(tert-butyl)phenyl)-1-((2-((3,3-difluorocyclobutyl)amino)pyridin-4-yl)methyl)-5,5-dimethylimidazolidine-2,4-dione] | ≤ 500

Row | SMILES | IC50 [nM]
17 | CC(C)(C)c1ccc(N2C(=O)N(Cc3ccnc(NC4(CO)CC4)c3)C(C)(C)C2=O)cc1 [Compound 271, 3-(4-(tert-butyl)phenyl)-1-((2-((1-(hydroxymethyl)cyclopropyl)amino)pyridin-4-yl)methyl)-5,5-dimethylimidazolidine-2,4-dione] | 500 to 2000
18 | CC1(Nc2cc(CN3C(=O)N(c4ccc(C(C)(C)C)cc4)C(=O)C3(C)C)ccn2)CC1 [Compound 273, 3-(4-(tert-butyl)phenyl)-5,5-dimethyl-1-((2-((1-methylcyclopropyl)amino)pyridin-4-yl)methyl) imidazolidine-2,4-dione] | ≤ 500
19 | COCC(C)(C)Nc1cc(CN2C(=O)N(c3ccc(C(C)(C)C)cc3)C(=O)C2(C)C)ccn1 [Compound 274, 3-(4-(tert-butyl)phenyl)-1-((2-((1-methoxy-2-methylpropan-2-yl)amino)pyridin-4-yl)methyl)-5,5-dimethylimidazolidine-2,4-dione] | 500 to 2000
20 | CC(C)(C)c1ccc(N2C(=O)N(Cc3ccnc(NC4COC4)c3)C(C)(C)C2=O)cc1 [Compound 275, 3-(4-(tert-butyl)phenyl)-5,5-dimethyl-1-((2-(oxetan-3-ylamino)pyridin-4-yl)methyl)imidazolidine-2,4-dione] | ≤ 500
21 | CC(C)(C)c1ccc(N2C(=O)N(Cc3ccnc(NC45CC(C4)C5)c3)C(C)(C)C2=O)cc1 [Compound 276, 1-((2-(bicyclo[1.1.1]pentan-1-ylamino)pyridin-4-yl)methyl)-3-(4-(tert-butyl)phenyl)-5,5-dimethylimidazolidine-2,4-dione] | ≤ 500
22 | Nc1cc(CN2C(=O)N(c3ccc(SC(F)(F)F)cc3)C(=O)[C@@H]2Cc2ccccc2)ccn1 [Compound 289, (S)-1-((2-aminopyridin-4-yl)methyl)-5-benzyl-3-(4-((trifluoromethyl)thio)phenyl)imidazolidine-2,4-dione] | 500 to 2000
23 | CC(C)[C@H]1C(=O)N(c2ccc(SC(F)(F)F)cc2)C(=O)N1Cc1ccnc(N)c1 [Compound 290, (S)-1-((2-aminopyridin-4-yl)methyl)-5-isopropyl-3-(4-((trifluoromethyl)thio)phenyl)imidazolidine-2,4-dione] | > 10000
24 | Nc1cc(CN2C(=O)N(c3ccc(SC(F)(F)F)cc3)C(=O)C23CCCC3)ccn1 [Compound 291, ((2-aminopyridin-4-yl)methyl)-3-(4-((trifluoromethyl)thio)phenyl)-1,3-diazaspiro[4.4]nonane-2,4-dione] | 500 to 2000
25 | Nc1cc(CN2C(=O)N(c3ccc(SC(F)(F)F)cc3)C(=O)C23CCC3)ccn1 [Compound 292, 5-((2-aminopyridin-4-yl)methyl)-7-(4-((trifluoromethyl)thio)phenyl)-5,7-diazaspiro[3.4]octane-6,8-dione] | 500 to 2000
26 | Nc1cc(CN2C(=O)N(c3ccc(SC(F)(F)F)cc3)C(=O)C23CCCCC3)ccn1 [Compound 293, 1-((2-aminopyridin-4-yl)methyl)-3-(4-((trifluoromethyl)thio)phenyl)-1,3-diazaspiro[4.5]decane-2,4-dione] | 2000 to 10000
27 | Nc1cc(CN2C(=O)N(c3ccc(SC(F)(F)F)cc3)C(=O)[C@@H]2c2ccccc2)ccn1 [Compound 294, (S)-1-((2-aminopyridin-4-yl)methyl)-5-phenyl-3-(4-((trifluoromethyl)thio)phenyl)imidazolidine-2,4-dione] | > 10000
28 | CC(C)[C@@H]1C(=O)N(c2ccc(SC(F)(F)F)cc2)C(=O)N1Cc1ccnc(N)c1 [Compound 295, (R)-1-((2-aminopyridin-4-yl)methyl)-5-isopropyl-3-(4-((trifluoromethyl)thio)phenyl)imidazolidine-2,4-dione] | 2000 to 10000
29 | Nc1cc(CN2C(=O)N(c3ccc(SC(F)(F)F)cc3)C(=O)[C@@H]2C2CCCCC2)ccn1 [Compound 296, (S)-1-((2-aminopyridin-4-yl)methyl)-5-cyclohexyl-3-(4-((trifluoromethyl)thio)phenyl)imidazolidine-2,4-dione] | > 10000
30 | CCC1(C)C(=O)N(c2ccc(SC(F)(F)F)cc2)C(=O)N1Cc1ccnc(N)c1 (centres unmarked) [Compound 297, 1-((2-aminopyridin-4-yl)methyl)-5-ethyl-5-methyl-3-(4-((trifluoromethyl)thio)phenyl)imidazolidine-2,4-dione] | ≤ 500
31 | CC(C)[C@H]1C(=O)N(c2ccc(S(=O)(=O)C(F)(F)F)cc2)C(=O)N1Cc1ccnc(N)c1 [Compound 300, (S)-1-((2-aminopyridin-4-yl)methyl)-5-isopropyl-3-(4-((trifluoromethyl)sulfonyl)phenyl)imidazolidine-2,4-dione] | 2000 to 10000
32 | Cn1cc(CNc2cc(CN3C(=O)N(c4ccc(SC(F)(F)F)cc4)C(=O)C3(C)C)ccn2)cn1 [Compound 301, 5,5-dimethyl-1-((2-(((1-methyl-1H-pyrazol-4-yl)methyl)amino)pyridin-4-yl)methyl)-3-(4-((trifluoromethyl)thio)phenyl)imidazolidine-2,4-dione] | ≤ 500
